Assay results reported in PMC7339578, “Multiple circulating alkaloids and saponins from intravenous Kang-Ai injection inhibit human cytochrome P450 and UDP-glucuronosyltransferase isozymes: potential drug–drug interactions” (Chinese Medicine, 2020).
Where two headings read alike, the source gives them in different places.

Key:
[1] = Protein binding assay (equilibrium dialysis); type: in vitro ADME, rat
Outline: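 Rat plasma binding was measured by equilibrium dialysis (12–14 kDa cutoff membrane), equilibrated 24 h at 37 °C and 55 rpm. Alkaloids were tested at 2 μmol/L and saponins at 4 μmol/L. Unbound fraction = dialysate concentration/post-dialysis plasma concentration × 100%.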

CYP2C9 = CYP2C9 (Homo sapiens, UniProt P11712); assay: Inhibition of recombinant CYP2C9 (probe tolbutamide); type: in vitro ADME; conditions: recombinant isozyme; mean ± SD of triplicate; unit not given (IC50 classes in μM); read-out: IC50 towards CYP2C9
Experimental: In this study, phenacetin (100 μM), coumarin (100 μM), bupropion (100 μM), paclitaxel (60 μM), tolbutamide (200 μM), mephenytoin (100 μM), chlorzoxazone (200 μM) and nifedipine (40 μM) have been used as the probe substrates for CYP1A2, 2A6, 2B6, 2C8, 2C9, 2C19, 2E1 and 3A4, respectively.

UGT1A1 = molecular target: T1, UGT1A1 (Homo sapiens, UniProt P22309); assay: Inhibition of expressed UGT1A1 (probe β-estradiol); type: in vitro ADME; conditions: recombinant isozyme; mean ± SD of triplicate; unit not given (IC50 classes in μM); read-out: IC50 towards UGT1A1
T1 sequence (P22309 26-533): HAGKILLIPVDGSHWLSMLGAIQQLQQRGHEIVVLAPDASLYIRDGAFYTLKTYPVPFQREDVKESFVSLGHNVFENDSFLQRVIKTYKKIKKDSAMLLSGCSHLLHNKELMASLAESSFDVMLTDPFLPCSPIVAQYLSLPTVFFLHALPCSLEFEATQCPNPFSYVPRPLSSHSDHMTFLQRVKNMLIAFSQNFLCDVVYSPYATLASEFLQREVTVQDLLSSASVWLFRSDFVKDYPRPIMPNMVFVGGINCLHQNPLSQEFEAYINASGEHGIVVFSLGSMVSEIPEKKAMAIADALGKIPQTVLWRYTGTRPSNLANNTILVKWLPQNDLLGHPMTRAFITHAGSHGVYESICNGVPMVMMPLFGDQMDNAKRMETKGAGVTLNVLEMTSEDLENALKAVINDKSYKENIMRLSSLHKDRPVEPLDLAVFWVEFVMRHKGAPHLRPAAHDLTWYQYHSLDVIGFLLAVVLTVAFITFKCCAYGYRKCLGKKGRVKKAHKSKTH
Experimental: (§1) After centrifugation (13,800g, 10 min), the supernatant (8 μL) was obtained for determination by UHPLC system.
(§2) Similarly, β-estradiol (60 μM), propofol (40 μM) and 4-MU (350 μM) were typically used as the substrates for UGT1A1, 1A9 and 2B7, respectively. After optimization of incubation conditions (Additional file 1: Fig. S2), the protein concentrations for UGT1A1, 1A9, and 2B7 were 0.125, 0.05, and 0.05 mg/mL, respectively.

UGT2B7 = molecular target: T2, UGT2B7 (Homo sapiens, UniProt P16662); assay: Inhibition of expressed UGT2B7 (probe 4-MU); type: in vitro ADME; conditions: recombinant isozyme; mean ± SD of triplicate; unit not given (IC50 classes in μM); read-out: IC50 towards UGT2B7
T2 sequence (P16662 24-529): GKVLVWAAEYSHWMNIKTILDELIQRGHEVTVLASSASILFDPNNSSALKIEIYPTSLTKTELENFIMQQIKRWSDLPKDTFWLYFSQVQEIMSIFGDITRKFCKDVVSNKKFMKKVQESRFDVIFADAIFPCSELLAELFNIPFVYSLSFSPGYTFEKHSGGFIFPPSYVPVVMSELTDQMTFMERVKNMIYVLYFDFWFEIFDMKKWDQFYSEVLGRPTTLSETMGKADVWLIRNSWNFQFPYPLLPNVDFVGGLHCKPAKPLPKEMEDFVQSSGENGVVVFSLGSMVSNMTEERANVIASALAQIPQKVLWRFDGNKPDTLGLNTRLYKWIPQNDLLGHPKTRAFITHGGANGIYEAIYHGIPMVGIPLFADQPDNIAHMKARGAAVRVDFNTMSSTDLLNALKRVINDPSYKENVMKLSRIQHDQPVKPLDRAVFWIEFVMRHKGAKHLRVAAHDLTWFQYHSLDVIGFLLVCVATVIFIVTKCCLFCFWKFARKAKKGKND
Experimental: as §1, §2

[2] = Stability tests of analytes in rat plasma QC samples; type: in vitro ADME; conditions: rat plasma
Experimental: […] The dilution integrity was investigated by analyzing six replicate samples with each analyte, and each analyte were diluted 10-fold with blank rat matrix. Furthermore, the diluted samples were analyzed using freshly prepared calibration curve to calculate RE and RSD, which should be no more than ± 15% as criterion.

Sequence of CYP2C9 (P11712 whole entry): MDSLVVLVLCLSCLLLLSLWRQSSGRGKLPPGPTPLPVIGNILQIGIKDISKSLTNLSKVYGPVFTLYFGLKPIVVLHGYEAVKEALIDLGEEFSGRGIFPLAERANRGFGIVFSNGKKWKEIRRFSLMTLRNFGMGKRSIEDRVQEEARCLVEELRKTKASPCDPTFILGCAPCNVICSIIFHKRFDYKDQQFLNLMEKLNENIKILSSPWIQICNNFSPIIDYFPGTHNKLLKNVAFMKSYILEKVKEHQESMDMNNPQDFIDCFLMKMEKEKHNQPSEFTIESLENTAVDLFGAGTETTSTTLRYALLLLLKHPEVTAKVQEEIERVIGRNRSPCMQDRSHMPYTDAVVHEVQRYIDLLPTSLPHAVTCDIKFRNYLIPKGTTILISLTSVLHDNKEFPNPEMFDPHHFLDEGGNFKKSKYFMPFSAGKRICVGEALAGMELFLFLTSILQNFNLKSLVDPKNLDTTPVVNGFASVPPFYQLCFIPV

**Q.** Which fraction unbound at 24 h ([1]; rat, plasma) does the source give for `CC(C)=CCC[C@](C)(O)[C@H]1CC[C@]2(C)[C@@H]1[C@H](O)C[C@@H]1[C@@]3(C)CC[C@H](O)C(C)(C)[C@@H]3[C@@H](O[C@@H]3O[C@H](CO)[C@@H](O)[C@H](O)[C@H]3O[C@@H]3O[C@H](CO)[C@@H](O)[C@H](O)[C@H]3O)C[C@]12C` [Compound C7, Ginsenoside Rf] here?
**A.** Its fraction unbound at 24 h is 0.602 ± 0.0701.

**Q.** And the IC50 (CYP2C9)?
**A.** The IC50 was greater than 100 µM.

**Q.** And the IC50 (UGT1A1)?
**A.** The IC50 was greater than 100 µM.

**Q.** And the IC50 (UGT2B7)?
**A.** Its IC50 is greater than 100 µM.

**Q.** And the “At -80 °C for 48 h, Mean±SD” value ([2]; nominal conc. 20 nM)?
**A.** Its value is 21.60 ± 0.37 nM.

**Q.** What about the “At -80 °C for 48 h, RE” value ([2]; nominal conc. 20 nM) of the same compound?
**A.** Its value is 9.41%.

**Q.** What about the “Extracted samples at 8 °C for 18 h, Mean±SD” value (from here on “Extracted samples … Mean±SD”) ([2]; nominal conc. 20 nM) of the same compound?
**A.** Its value is 19.73 ± 2.64 nM.

**Q.** And the “Extracted samples at 8 °C for 18 h, RE” value ([2]; nominal conc. 20 nM)?
**A.** The value was 13.56%.

**Q.** What about the “Short-term stability at room temperature for 6 h, Mean±SD” value (“Short-term stability … Mean±SD” below) ([2]; nominal conc. 20 nM) of the same compound?
**A.** Its value is 20.44 ± 2.11 nM.

**Q.** And the “Short-term stability at room temperature for 6 h, RE” value (“Short-term stability … for 6 h, RE” below) ([2]; nominal conc. 20 nM)?
**A.** Its value is 11.15%.

**Q.** And the “Three freeze-thaw cycles (-80 °C ↔ 23 °C), Mean±SD” value (from here on “Three freeze-thaw cycles … Mean±SD”) ([2]; nominal conc. 20 nM)?
**A.** Its value is 22.07 ± 0.56 nM.

**Q.** And the “Three freeze-thaw cycles (-80 °C ↔ 23 °C), RE” value ([2]; nominal conc. 20 nM)?
**A.** Its value is 13.46%.

**Q.** What about the “At -80 °C for 48 h, Mean±SD” value ([2]; nominal conc. 100 nM) of the same compound?
**A.** Its value is 100.58 ± 11.11 nM.

**Q.** What about the “At -80 °C for 48 h, RE” value ([2]; nominal conc. 100 nM) of the same compound?
**A.** The value was 13.37%.

**Q.** What about the “Extracted samples … Mean±SD” value ([2]; nominal conc. 100 nM) of the same compound?
**A.** Its value is 93.83 ± 2.15 nM.

**Q.** What about the “Extracted samples at 8 °C for 18 h, RE” value ([2]; nominal conc. 100 nM) of the same compound?
**A.** Its value is -8.56%.

**Q.** And the “Short-term stability … Mean±SD” value ([2]; nominal conc. 100 nM)?
**A.** Its value is 96.37 ± 9.64 nM.

**Q.** What about the “Short-term stability … for 6 h, RE” value ([2]; nominal conc. 100 nM) of the same compound?
**A.** Its value is -10.30%.

**Q.** And the “Three freeze-thaw cycles … Mean±SD” value ([2]; nominal conc. 100 nM)?
**A.** Its value is 101.34 ± 13.26 nM.

**Q.** What about the “Three freeze-thaw cycles (-80 °C ↔ 23 °C), RE” value ([2]; nominal conc. 100 nM) of the same compound?
**A.** The value was -13.01%.

**Q.** What about the “At -80 °C for 48 h, Mean±SD” value ([2]; nominal conc. 400 nM) of the same compound?
**A.** Its value is 428.42 ± 28.06 nM.

**Q.** What about the “At -80 °C for 48 h, RE” value ([2]; nominal conc. 400 nM) of the same compound?
**A.** The value was 14.40%.

**Q.** And the “Extracted samples … Mean±SD” value ([2]; nominal conc. 400 nM)?
**A.** The value was 392.21 ± 39.26 nM.

**Q.** What about the “Extracted samples at 8 °C for 18 h, RE” value ([2]; nominal conc. 400 nM) of the same compound?
**A.** The value was -12.43%.

**Q.** What about the “Short-term stability … Mean±SD” value ([2]; nominal conc. 400 nM) of the same compound?
**A.** The value was 357.16 ± 4.75 nM.

**Q.** And the “Short-term stability … for 6 h, RE” value ([2]; nominal conc. 400 nM)?
**A.** The value was -11.69%.

**Q.** And the “Three freeze-thaw cycles … Mean±SD” value ([2]; nominal conc. 400 nM)?
**A.** Its value is 398.07 ± 39.06 nM.

**Q.** And the “Three freeze-thaw cycles (-80 °C ↔ 23 °C), RE” value ([2]; nominal conc. 400 nM)?
**A.** Its value is -10.52%.

**Q.** Which results are given for `CC(C)=CCC[C@](C)(O[C@@H]1O[C@H](CO)[C@@H](O)[C@H](O)[C@H]1O)[C@H]1CC[C@]2(C)[C@@H]1[C@H](O)C[C@@H]1[C@@]3(C)CC[C@H](O)C(C)(C)[C@@H]3[C@@H](O[C@@H]3O[C@H](CO)[C@@H](O)[C@H](O)[C@H]3O[C@@H]3O[C@@H](C)[C@H](O)[C@@H](O)[C@H]3O)C[C@]12C` [Compound C9, Ginsenoside Re]?
**A.** fraction unbound at 24 h ([1]; rat plasma, equilibrium dialysis 24 h, 37 °C, 2 μmol/L alkaloids, 4 μmol/L saponins, read-out: fu-plasma (unbound fraction)): 0.874 ± 0.0659; IC50 (CYP2C9): > 100 µM; IC50 (UGT1A1): > 100 µM; IC50 (UGT2B7): > 100 µM; At -80 °C for 48 h, Mean±SD ([2]; nominal conc. 40 nM): 37.07 ± 2.41 nM; At -80 °C for 48 h, RE ([2]; nominal conc. 40 nM): -12.37%; Extracted samples at 8 °C for 18 h, Mean±SD ([2]; nominal conc. 40 nM): 39.68 ± 3.10 nM; Extracted samples at 8 °C for 18 h, RE ([2]; nominal conc. 40 nM): -8.46%; Short-term stability at room temperature for 6 h, Mean±SD ([2]; nominal conc. 40 nM): 42.26 ± 4.77 nM; Short-term stability at room temperature for 6 h, RE ([2]; nominal conc. 40 nM): 12.91%; Three freeze-thaw cycles (-80 °C ↔ 23 °C), Mean±SD ([2]; nominal conc. 40 nM): 39.18 ± 1.53 nM; Three freeze-thaw cycles (-80 °C ↔ 23 °C), RE ([2]; nominal conc. 40 nM): -5.32%; At -80 °C for 48 h, Mean±SD ([2]; nominal conc. 200 nM): 181.77 ± 7.39 nM; At -80 °C for 48 h, RE ([2]; nominal conc. 200 nM): -12.74%; Extracted samples at 8 °C for 18 h, Mean±SD ([2]; nominal conc. 200 nM): 193.91 ± 26.18 nM; Extracted samples at 8 °C for 18 h, RE ([2]; nominal conc. 200 nM): -12.50%; Short-term stability at room temperature for 6 h, Mean±SD ([2]; nominal conc. 200 nM): 175.60 ± 2.61 nM; Short-term stability at room temperature for 6 h, RE ([2]; nominal conc. 200 nM): -13.13%; Three freeze-thaw cycles (-80 °C ↔ 23 °C), Mean±SD ([2]; nominal conc. 200 nM): 205.17 ± 19.51 nM; Three freeze-thaw cycles (-80 °C ↔ 23 °C), RE ([2]; nominal conc. 200 nM): 11.83%; At -80 °C for 48 h, Mean±SD ([2]; nominal conc. 800 nM): 836.79 ± 51.65 nM; At -80 °C for 48 h, RE ([2]; nominal conc. 800 nM): 10.56%; Extracted samples at 8 °C for 18 h, Mean±SD ([2]; nominal conc. 800 nM): 827.44 ± 80.86 nM; Extracted samples at 8 °C for 18 h, RE ([2]; nominal conc. 800 nM): 12.75%; Short-term stability at room temperature for 6 h, Mean±SD ([2]; nominal conc. 800 nM): 724.25 ± 14.79 nM; Short-term stability at room temperature for 6 h, RE ([2]; nominal conc. 800 nM): -11.32%; Three freeze-thaw cycles (-80 °C ↔ 23 °C), Mean±SD ([2]; nominal conc. 800 nM): 818.48 ± 84.93 nM; Three freeze-thaw cycles (-80 °C ↔ 23 °C), RE ([2]; nominal conc. 800 nM): 12.80%
